SMILES strings stand for the structures.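 48-hour exposure; five concentrations; linearly interpolated endpoints. GI50: concentration for 50% inhibition of growth.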 Active and inactive are the calls of the source. Rule as the data show it: active = GI50 up to about 1.1 µM and inactive = higher.

Some test systems named below: SNB-75; U-251; SF-539; K562; ACHN; 786-0; UACC-62; CAKI-1; MOLT-4; SK-MEL-2; UACC-257; NCI-H522; OVCAR-5; SW-620; SK-OV-3; HT-29; A498; T47D.
Holding throughout (test): NCI-60 cell line screen, 48 h

In the case of `CC(C)c1ccc(/C=C(\NC(=O)c2ccccc2)c2nc3ccccc3[nH]2)cc1`, the GI50 in the test with SNB-75 is 36.3 µM (inactive); with U-251, 39.4 µM (inactive); in the test on SF-539, 77.1 µM (inactive); with K562 it was 27.5 µM (inactive); with ACHN it was 33.7 µM (inactive); in the test with 786-0 it was 39.3 µM (inactive). Also, the GI50 in the test on UACC-62 was 37.4 µM (inactive); in the test on CAKI-1 it was 50.6 µM (inactive); in the test with MOLT-4 it was 23.3 µM (inactive); in the test on SK-MEL-2, 34.4 µM (inactive); in the test with UACC-257, 35.2 µM (inactive); with NCI-H522 it was 26.7 µM (inactive). Moreover, the GI50 with OVCAR-5 was 75.3 µM (inactive); in the test with SW-620, 49.4 µM (inactive); in the test with SK-OV-3, > 100 µM (inactive); in the test with HT-29, 33.6 µM (inactive); in the test with A498, 40.6 µM (inactive).

As to `C[C@H]1CCC2C(CN3CCCCC3)C(=O)OC2[C@]2(C)C(=O)CC(N3CCCCC3)C12O` (stereo partly specified), the GI50 with SNB-75 is 11.3 µM (inactive); with U-251, 5.53 µM (inactive); in the test with SF-539 it was 2.26 µM (inactive); in the test with K562 it was 2.4 µM (inactive); in the test on ACHN, 2.8 µM (inactive); in the test with 786-0, 4.54 µM (inactive). For the same compound, the GI50 was 2.36 µM (inactive) in the test on UACC-62; 15.7 µM (inactive) in the test with CAKI-1; 2.21 µM (inactive) in the test on MOLT-4; 10.7 µM (inactive) in the test with SK-MEL-2; 3.1 µM (inactive) in the test on UACC-257; 1.38 µM (inactive) with NCI-H522. Also, the GI50 was 10.7 µM (inactive) with OVCAR-5; 3.64 µM (inactive) in the test with SW-620; 28.6 µM (inactive) with SK-OV-3; 3.9 µM (inactive) with HT-29; 4.12 µM (inactive) in the test with A498.

Consider `COc1ccc(C2=Nc3ccccc3NC(=O)C2)cc1`, for which the GI50 was 23.8 µM (inactive) in the test with SNB-75; 28 µM (inactive) with U-251; 29.4 µM (inactive) in the test with SF-539; > 100 µM (inactive) in the test with K562; 41.2 µM (inactive) in the test with ACHN; 33.3 µM (inactive) in the test on 786-0. For the same compound, the GI50 with UACC-62 is > 100 µM (inactive); with CAKI-1, > 100 µM (inactive); with MOLT-4, > 100 µM (inactive); with SK-MEL-2 it was 51.5 µM (inactive); with UACC-257 it was > 100 µM (inactive); in the test on NCI-H522 it was 38.9 µM (inactive). For the same compound, the GI50 was > 100 µM (inactive) in the test on OVCAR-5; 16.7 µM (inactive) in the test on SW-620; 21.5 µM (inactive) with SK-OV-3; > 100 µM (inactive) with HT-29; 45.2 µM (inactive) in the test with A498.

For `Cc1cc2c(c(N)c1C)C(=O)c1ccccc1C2=O`, the GI50 in the test with SNB-75 was 12.5 µM (inactive); with U-251, 20.3 µM (inactive); in the test on SF-539, 12.5 µM (inactive); in the test with K562 it was > 100 µM (inactive); in the test on ACHN, 14.1 µM (inactive); with 786-0 it was 20.2 µM (inactive). For the same compound, the GI50 with UACC-62 was 5.12 µM (inactive); in the test with CAKI-1, 14.5 µM (inactive); in the test with MOLT-4, > 100 µM (inactive); in the test with SK-MEL-2, 66.8 µM (inactive); in the test on UACC-257 it was 87.1 µM (inactive); in the test with NCI-H522, 21.7 µM (inactive). Moreover, the GI50 is > 100 µM (inactive) in the test on OVCAR-5; 59.7 µM (inactive) in the test on SW-620; 17.5 µM (inactive) with SK-OV-3; 49.5 µM (inactive) in the test with HT-29; 19.7 µM (inactive) with A498.

Take `O=C1c2ccc(O)cc2C(=O)c2ccc(O)cc21`: the GI50 in the test on SNB-75 was 29.6 µM (inactive); in the test on U-251, 49.4 µM (inactive); in the test with SF-539, 40.9 µM (inactive); in the test with K562 it was 50.1 µM (inactive); with ACHN it was 36.9 µM (inactive); with 786-0, 42.7 µM (inactive). For the same compound, the GI50 is 56.8 µM (inactive) in the test on UACC-62; 32.9 µM (inactive) in the test with CAKI-1; 31.6 µM (inactive) with MOLT-4; 45.7 µM (inactive) in the test on SK-MEL-2; > 100 µM (inactive) in the test on UACC-257; 32.6 µM (inactive) in the test on NCI-H522. Moreover, the GI50 in the test with OVCAR-5 is > 100 µM (inactive); with SW-620, 92.5 µM (inactive); in the test with SK-OV-3, 33.2 µM (inactive); in the test with HT-29 it was > 100 µM (inactive); with A498, 38.5 µM (inactive).

For the compound `O=C(/C=C/c1c(O)ccc2ccccc12)c1ccccc1`, the GI50 with SNB-75 was 0.413 µM (active); with U-251, > 100 µM (inactive); in the test with SF-539 it was > 100 µM (inactive); with K562, 58.5 µM (inactive); in the test on ACHN, > 100 µM (inactive); in the test with 786-0, 63.5 µM (inactive). The GI50 in the test on UACC-62, in the test on CAKI-1, in the test with MOLT-4, in the test with SK-MEL-2, in the test on UACC-257 and with NCI-H522 was > 100 µM (inactive) each time. For the same compound, the GI50 in the test on OVCAR-5 was > 100 µM (inactive); in the test with SW-620, 22.5 µM (inactive); with SK-OV-3 it was > 100 µM (inactive); in the test with HT-29, 15.7 µM (inactive); in the test on A498, > 100 µM (inactive).

In the case of `CCc1ccc(/N=C\c2cc(OC)c(OC)c(OC)c2)cc1`, the GI50 with SNB-75 was > 100 µM (inactive); with U-251, > 100 µM (inactive); in the test on SF-539, > 100 µM (inactive); in the test on K562 it was 26.5 µM (inactive); with ACHN, > 100 µM (inactive); in the test on 786-0, > 100 µM (inactive). Further, the GI50 with UACC-62, in the test with CAKI-1, in the test on MOLT-4, in the test with SK-MEL-2, in the test with UACC-257 and with NCI-H522 was > 100 µM (inactive) in each case. The GI50 in the test on OVCAR-5 is > 100 µM (inactive); in the test with SW-620, 10.9 µM (inactive); in the test on SK-OV-3, > 100 µM (inactive); in the test on HT-29, > 100 µM (inactive); in the test with A498, > 100 µM (inactive).

In the case of `O=C(O)CCC1CCc2cccc3occ1c23` (stereo unspecified), the GI50 in the test with SNB-75, in the test with U-251, with SF-539, in the test with K562, in the test with ACHN and in the test with 786-0 was > 100 µM (inactive) throughout. Further, the GI50 in the test with UACC-62, with CAKI-1, in the test with MOLT-4, with SK-MEL-2, in the test with UACC-257 and in the test on NCI-H522 was > 100 µM (inactive) in each case. Also, the GI50 with OVCAR-5, in the test with SW-620, in the test on SK-OV-3, in the test with HT-29 and with A498 was > 100 µM (inactive) throughout.

For `Cc1cc2nc3c(C#N)c4c(c(Cl)n3c2cc1C)CCC4`, the GI50 in the test with SNB-75 is > 100 µM (inactive); in the test with U-251 it was 15.1 µM (inactive); with SF-539, 25.3 µM (inactive); in the test with ACHN, 24.6 µM (inactive); in the test on 786-0, 16 µM (inactive); in the test on CAKI-1, 18.5 µM (inactive). Besides, the GI50 is 26 µM (inactive) in the test with MOLT-4; 40.7 µM (inactive) in the test on T47D; 36.7 µM (inactive) with UACC-257; 17.4 µM (inactive) with NCI-H522; 25.1 µM (inactive) in the test on OVCAR-5; 19.6 µM (inactive) with SW-620. For the same compound, the GI50 in the test on SK-OV-3 and in the test with A498 was > 100 µM (inactive) throughout.

With `CCOC(=N)CC(=O)Nc1ccc(Cl)cc1`, the GI50 in the test on SNB-75, in the test with U-251, with SF-539, in the test with K562, in the test with ACHN and in the test with 786-0 was > 100 µM (inactive) in each case. Moreover, the GI50 in the test on UACC-62, in the test on CAKI-1, in the test with MOLT-4, with SK-MEL-2, in the test on UACC-257 and with NCI-H522 was > 100 µM (inactive) in each case. Further, the GI50 with OVCAR-5, with SW-620, in the test on SK-OV-3, with HT-29 and in the test with A498 was > 100 µM (inactive) in each case.

For the compound `CCOC(=O)Nn1c(C)cc(C(=O)OC)c1C`, the GI50 in the test with SNB-75, in the test with U-251, with SF-539, with K562, with ACHN and with 786-0 was > 100 µM (inactive) each time. The GI50 with UACC-62, in the test on CAKI-1, with MOLT-4, with SK-MEL-2, with UACC-257 and with NCI-H522 was > 100 µM (inactive) in each case. In addition, the GI50 in the test with OVCAR-5, in the test with SW-620, with SK-OV-3, with HT-29 and in the test with A498 was > 100 µM (inactive) each time.

`c1ccc(C2C3=C(Nc4ncnn42)c2ccccc2C3)cc1` (stereo unspecified): the GI50 in the test on SNB-75 is 83.9 µM (inactive); in the test with U-251, 2.93 µM (inactive); in the test on SF-539, 11.4 µM (inactive); with K562, 7.93 µM (inactive); in the test with ACHN, 82.6 µM (inactive); in the test on 786-0 it was 25.4 µM (inactive). Further, the GI50 with UACC-62 is 4.99 µM (inactive); with CAKI-1, 42.3 µM (inactive); in the test on MOLT-4, 17.4 µM (inactive); in the test on SK-MEL-2, 11.6 µM (inactive); in the test on UACC-257 it was > 100 µM (inactive); with NCI-H522, 6.14 µM (inactive). In addition, the GI50 with OVCAR-5 is 46.8 µM (inactive); with SW-620, 4.93 µM (inactive); in the test with SK-OV-3, 13.2 µM (inactive); with HT-29 it was 4.3 µM (inactive); with A498, 51.2 µM (inactive).

The values are drawn from ChEMBL document CHEMBL1201862, “PubChem BioAssay data set” (2004).
